Experimental data: patent US10328088B2, “Use of aminosalicylates in diarrhoea-predominent irritable bowel syndrome” (Salix Pharmaceuticals, Inc., priority 2004, dated 2019)

Key:
Assay type in all cases: in vivo, human
[1] = tested on: diarrhoea-predominant Irritable Bowel Syndrome; test: Inventor's clinical experience in patients with diarrhoea-predominant IBS; conditions: from clinical experience
Description: Balsalazide is better than mesalazine (5-ASA) in controlling and may inhibit even more powerfully the symptoms of diarrhoea-predominant IBS and associated conditions enumerated below. This is unexpected. It was not expected that balsalazide would be capable of treating diarrhoea-predominant IBS as it is a very different molecule to the conventional 4ASA and 5ASA compounds. […] It is noted that the side chain together with the 5-ASA potentiates inhibition of gas production, cramping, fluid secretion, and mucus production. It appears the large side chain apart from the salicylate component is effective in treating diarrhoea. In addition, in a subgroup of patients the constipation component of IBS may respond to the same treatment.

[2] = tested on: chronic IBS; test: Example 2: case of a person with chronic IBS (diarrhoea with intervening constipation, diverticulosis) treated with balsalazide
Description: A person complained of greater than 20 years of diarrhoea with intervening constipation, abdominal bloating, pains, flatulence, and nausea with acid reflux. They had undergone several complete medical investigations including stool tests, blood tests, X-ray imaging and colonoscopic examinations, with negative findings apart from the presence of diverticulosis. Diagnosed as chronic IBS they tried increasing fibre intake, controlling stress, and changing their diet, all to no avail. On commencing balsalazide 1.5 g/day and pushing the dose upwards to 4.5 g/d their diarrhoea, pains, flatulence and nausea abated. At the higher dose the constipation also disappeared.

[3] = tested on: diarrhoea predominant Irritable Bowel Syndrome; test: Example 3: case of a person with diarrhoea predominant Irritable Bowel Syndrome treated with Salofalk granules, then balsalazide
[4] = tested on: diarrhoea-predominant IBS; test: Example 1: case of a person with severe diarrhoea-predominant IBS treated with balsalazide
Description: A person presented with a 7 year history of worsening diarrhoea (watery 6-12/day), urgency, cramping lower abdominal pain and at times faecal incontinence. There was no clear preceding illness nor antibiotic usage. They underwent numerous investigations, beginning with general practitioners ordering stool cultures, blood tests, ultrasound and CT scan examinations. With the passage of time they noticed that some foods caused worsening of symptoms, and was told by a naturopath that they suffered from a ‘food allergy’. […] They consulted a gastroenterologist and underwent endoscopic small bowel biopsy—where coeliac disease was excluded histologically—and colonoscopy with biopsy and further stool cultures. All tests being non-diagnostic, they were told they had severe, diarrhoea-predominant IBS. They continued on the restricted diet, and was referred for counselling and hypnotherapy. Over the next 6-12 months they progressively lost weight with only modest control of their symptoms by the diet. Within 2 weeks of commencing increasing doses of balsalazide from 1.5 gram to 3 grams per day, the stools progressively formed up, with frequency reducing to 1-2 formed stools per day. […] By 6 weeks of treatment they regained 7 kg in weight.

[5] = balsalazide 1.5 gram to 3 grams per day

## O=C(O)CCNC(=O)c1ccc(/N=N/c2ccc(O)c(C(=O)O)c2)cc1 [balsalazide, 5[(1E)-[4-[[(2-carboxyethyl)amino]carbonyl]phenyl]azo]-2-hydroxybenzoic acid]
[1]
  suppression of symptoms of diarrhoea-predominant Irritable Bowel Syndrome compared with conventional 4ASA and 5ASA compounds: much more powerful
[2]; at 26 weeks
  durability of improvements: remain sustained
[2]; at the higher dose (4.5 g/d)
  constipation: disappeared
[2]; balsalazide 1.5 g/day pushed upwards to 4.5 g/d
  diarrhoea, pains, flatulence and nausea: abated
[3]; 750 mg twice daily slowly raised to 1.5 grams twice daily
  improvement in symptoms: dramatic
[3]; 3 grams twice daily
  stool frequency: two
  symptoms: largely disappeared
  urgency or flatulence: without any urgency or flatulence
[3]; at four months follow up
  durability of improvements: sustained
[4]; [5]
  pain: completely abolished
  urgency: disappaeared
[4]; by 6 weeks of treatment
  weight regained: 7 kg
[4]; on balsalazide at 26 weeks
  symptom status at follow up: virtually completely symptom-free
[4]; within 2 weeks of increasing doses from 1.5 gram to 3 grams per day, baseline watery 6-12/day
  stool frequency: 1-2 formed stools per day
